In patent US8012983B2, “Substituted triazolopyrazines useful for the treatment of degenerative and inflammatory diseases” (Galapagos NV, priority 2008, dated 2011):
pIC50: −log10 of the molar value.

Key:
[1] = test system: MMP1 expression by activated synovial fibroblasts (RASFs); experiment: 'MMP assay': complex trigger-induced MMP1 expression by synovial fibroblasts (MMP1 ELISA); type: cell-based; conditions: Homo sapiens, Fibroblast; RASFs, complex trigger, 48 hrs; read-out: MMP1 IC50
How it was run: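 Synovial fibroblasts seeded at 3,000 cells/well, treated with compound, then triggered with supernatant of TNF-α-treated THP-1 cells, diluted in M199 with low FBS. MMP1 in supernatant quantified by sandwich ELISA with biotinylated anti-MMP1 and streptavidin-HRP chemiluminescent detection.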

[2] = Tolerability of compounds in healthy mice (body weight); type: in vivo; conditions: 100 mg/kg/d, po, up to two weeks, DBA/1J mice, FIG. 6A
Protocol: This protocol is designed to assess the tolerability of the compounds of the invention in healthy DBA/1J mice to determine the “therapeutic window” as defined by the dosing range between efficacious (mouse therapeutic Collagen-Induced Arthritis model) and toxic doses.
Compounds are prepared for a dosing regimen of 100 mg/kg/d, po, free base, in a standard volume of injection of 0.1 mL/10 g of mice (equivalent to 10 mg/1 mL). For solution preparations, compounds were dissolved in 0.5% methyl-cellulose and 1% DMSO, once a week.
Groups are randomized based on body weight and treated for up to two weeks. Each group contained 5 mice and received either test compound at 100 mg/kg, a comparison compound at 100 mg/kg/d (Compound A) or vehicle on a daily basis in a dosing volume of 200 μL per mouse.
Potential drug toxicity is monitored by observation every day and by recording body weights three times a week for weight loss. All statistical analyses were performed using Student's t test.
To assess the general tolerability of the treatments, the total body weight is followed throughout the course of the study.

SMILES	pIC50 [1]	General tolerability: total body weight compared to the vehicle [2]
CC(C)N1C[C@@H]2C[C@H]1CN2c1ccc(Nc2ncc(-c3ccc4c(c3)CNC4=O)n3ncnc23)cc1 [Compound 1, 5-{8-[4-((1S,4S)-5-Isopropyl-2,5-diaza-bicyclo[2.2.1]hept-2-yl)-phenylamino]-[1,2,4]triazolo[1,5-a]pyrazin-5-yl}-2,3-dihydro-isoindol-1-one]	< 6.00	no statistically significant difference
CC(C)N1C[C@@H]2C[C@H]1CN2c1ccc(Nc2ncc(-c3coc(C(N)=O)c3)n3ncnc23)cc1 [Compound 2, 4-{8-[4-((1S,4S)-5-Isopropyl-2,5-diaza-bicyclo[2.2.1]hept-2-yl)-phenylamino]-[1,2,4]triazolo[1,5-a]pyrazin-5-yl}-furan-2-carboxamide]	6.00 to 9.00	no statistically significant difference
